Structures are written as SMILES.

The assay has as its target T1, human GR (Homo sapiens, UniProt P04150).
T1 sequence (P04150 1-777): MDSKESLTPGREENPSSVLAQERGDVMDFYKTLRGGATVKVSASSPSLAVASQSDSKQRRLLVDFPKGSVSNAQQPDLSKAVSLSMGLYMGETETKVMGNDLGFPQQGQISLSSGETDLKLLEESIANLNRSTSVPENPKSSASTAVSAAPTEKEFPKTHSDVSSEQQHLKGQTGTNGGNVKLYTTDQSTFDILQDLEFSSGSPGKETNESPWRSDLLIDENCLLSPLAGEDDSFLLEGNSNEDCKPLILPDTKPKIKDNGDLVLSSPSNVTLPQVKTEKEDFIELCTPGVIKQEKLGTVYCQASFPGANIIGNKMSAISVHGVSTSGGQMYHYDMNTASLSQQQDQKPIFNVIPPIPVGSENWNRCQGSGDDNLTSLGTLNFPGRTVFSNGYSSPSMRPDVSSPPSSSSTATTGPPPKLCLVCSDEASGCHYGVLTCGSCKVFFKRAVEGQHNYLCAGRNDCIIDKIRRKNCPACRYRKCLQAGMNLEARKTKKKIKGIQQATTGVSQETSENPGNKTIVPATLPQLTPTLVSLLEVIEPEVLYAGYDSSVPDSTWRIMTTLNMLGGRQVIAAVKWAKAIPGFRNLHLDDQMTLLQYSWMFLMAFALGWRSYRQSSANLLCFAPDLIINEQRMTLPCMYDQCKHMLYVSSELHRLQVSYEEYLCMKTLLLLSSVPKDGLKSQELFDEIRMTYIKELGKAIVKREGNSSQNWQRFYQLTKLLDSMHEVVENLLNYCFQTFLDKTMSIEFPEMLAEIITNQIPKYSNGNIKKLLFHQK
Nature of the assay: Trans-Activation Modulation of Glucocorticoid Receptor (GRAMMER), MMTV-LUC reporter, agonist mode. The class given is cell-based. Details: endogenous in cells. The following applies: for Emax: A549, A549 cells, maximum activity, read-out: Transactivation A549 Cells GRAMMER Emax; for EC50: A549 cells, inflection point, read-out: Transactivation A549 Cells GRAMMER IP. The gist of the method: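 Readout is luciferase from a modified MMTV LTR promoter after 24 h compound exposure alongside 10 nM dexamethasone (100% activity reference), DMSO ≤1%.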

Regarding `C[C@]12Cc3cnn(-c4ccccc4)c3C=C1CC[C@@H]2CN(CCc1ccccn1)S(=O)(=O)CC(F)(F)F` [Example 138, 2,2,2-trifluoro-N-{[(4αR,5S)-4α-methyl-1-phenyl-1,4,4α,5,6,7-hexahydrocyclopenta[f]indazol-5-yl]methyl}-N-(2-pyridin-2-ylethyl)ethanesulfonamide], the maximal response (Emax) was 78.1% and the EC50 was 203 nM.
The like results for `COc1ccccc1CCN(C[C@H]1CCC2=Cc3c(cnn3-c3ccccc3)C[C@@]21C)S(=O)(=O)CC(F)(F)F` [Example 139, 2,2,2-trifluoro-N-[2-(2-methoxyphenyl)ethyl]-N-{[(4αR,5S)-4α-methyl-1-phenyl-1,4,4α,5,6,7-hexahydrocyclopenta[f]indazol-5-yl]methyl}ethanesulfonamide] were, in that order, 70.7% and 262 nM.
With `C[C@]12Cc3cnn(-c4ccccc4)c3C=C1CC[C@@H]2CN(CCc1ccccn1)S(=O)(=O)Cc1cccnc1` [Example 140, N-{[(4αR,5S)-4α-methyl-1-phenyl-1,4,4α,5,6,7-hexahydrocyclopenta[f]indazol-5-yl]methyl}-1-pyridin-3-yl-N-(2-pyridin-2-ylethyl)methanesulfonamide], the Emax stood at 21.3% and the EC50 was determined as 704 nM.
For `C[C@]12Cc3cnn(-c4ccccc4)c3C=C1CC[C@@H]2CN(CCc1ccccc1O)S(=O)(=O)Cc1cccnc1` [Example 141, N-[2-(2-hydroxyphenyl)ethyl]-N-{[(4αR,5S)-4α-methyl-1-phenyl-1,4,4α,5,6,7-hexahydrocyclopenta[f]indazol-5-yl]methyl}-1-pyridin-3-ylmethanesulfonamide], in that order: 22.6% and 441 nM.
For `C[C@]12Cc3cnn(-c4ccc(F)cc4)c3C=C1CC[C@@H]2CN(CC(O)c1ccccn1)S(=O)(=O)CC(F)(F)F` (stereo partly drawn) [Example 142, 2,2,2-trifluoro-N-{[(4αR,5S)-1-(4-fluorophenyl)-4α-methyl-1,4,4α,5,6,7-hexahydrocyclopenta[f]indazol-5-yl]methyl}-N-(2-hydroxy-2-pyridin-2-ylethyl)ethanesulfonamide], in that order: 78.1% and 123 nM.
As to `C[C@]12Cc3cnn(-c4ccc(F)cc4)c3C=C1CC[C@@H]2CN(CC(O)c1cccnc1)S(=O)(=O)CC(F)(F)F` (stereo partly drawn) [Example 143, 2,2,2-trifluoro-N-{[(4αR,5S)-1-(4-fluorophenyl)-4α-methyl-1,4,4α,5,6,7-hexahydrocyclopenta[f]indazol-5-yl]methyl}-N-(2-hydroxy-2-pyridin-3-ylethyl)ethanesulfonamide], the maximum response (Emax) came to 83.5% and the EC50 worked out at 252 nM.
The like results for `C[C@]12Cc3cnn(-c4ccc(F)cc4)c3C=C1CC[C@@H]2CN(CC(O)c1ccncc1)S(=O)(=O)CC(F)(F)F` (stereo partly drawn) [Example 144, 2,2,2-trifluoro-N-{[(4αR,5S)-1-(4-fluorophenyl)-4α-methyl-1,4,4α,5,6,7-hexahydrocyclopenta[f]indazol-5-yl]methyl}-N-(2-hydroxy-2-pyridin-4-ylethyl)ethanesulfonamide] were, in that order, 73.6% and 397 nM.
For `C[C@]12Cc3cnn(-c4ccc(F)cc4)c3C=C1CC[C@@H]2CN(CC(OS(=O)(=O)CC(F)(F)F)c1ccccn1)S(=O)(=O)CC(F)(F)F` (stereo partly drawn) [Example 145, 2-{{[(4αR,5S)-1-(4-fluorophenyl)-4α-methyl-1,4,4α,5,6,7-hexahydrocyclopenta[f]indazol-5-yl]methyl}[(2,2,2-trifluoroethyl)sulfonyl]amino}-1-pyridin-2-ylethyl 2,2,2-trifluoroethanesulfonate], in that order: 60.2% and 204 nM.
The like results for `CC(CN(C[C@H]1CCC2=Cc3c(cnn3-c3ccc(F)cc3)C[C@@]21C)S(=O)(=O)CC(F)(F)F)c1cccnc1` (stereo partly drawn) [Example 146, 2,2,2-trifluoro-N-{[(4αR,5S)-1-(4-fluorophenyl)-4α-methyl-1,4,4α,5,6,7-hexahydrocyclopenta[f]indazol-5-yl]methyl}-N-(2-pyridin-3-ylpropyl)ethanesulfonamide] were, in that order, 91.5% and 263 nM.
Regarding `C[C@]12Cc3cnn(-c4ccc(F)cc4)c3C=C1CC[C@@H]2CN(CCC(N)C(F)(F)F)S(=O)(=O)CC(F)(F)F` (stereo partly drawn) [Example 147, N-(3-amino-4,4,4-trifluorobutyl)-2,2,2-trifluoro-N-{[(4aR,5S)-1-(4-fluorophenyl)-4α-methyl-1,4,4α,5,6,7-hexahydrocyclopenta[f]indazol-5-yl]methyl}ethanesulfonamide], the Emax was 78.1% and the EC50 stood at 475 nM.
As to `CCCS(=O)(=O)N(CC(O)C(F)(F)F)C[C@H]1CCC2=Cc3c(cnn3-c3ccc(F)cc3)C[C@@]21C` (stereo partly drawn) [Example 148, N-{[(4αR,5S)-1-(4-fluorophenyl)-4α-methyl-1,4,4α,5,6,7-hexahydrocyclopenta[f]indazol-5-yl]methyl}-N-(3,3,3-trifluoro-2-hydroxypropyl)propane-1-sulfonamide], the Emax amounted to 62.6% and the EC50 amounted to 403 nM.
For `C[C@]12Cc3cnn(-c4ccc(F)cc4)c3C=C1CC[C@@H]2CN(CC(O)C(F)(F)F)S(=O)(=O)Cc1cccnc1` (stereo partly drawn) [Example 149, N-{[(4αR,5S)-1-(4-fluorophenyl)-4α-methyl-1,4,4α,5,6,7-hexahydrocyclopenta[f]indazol-5-yl]methyl}-1-pyridin-3-yl-N-(3,3,3-trifluoro-2-hydroxypropyl)methanesulfonamide], in that order: 32.4% and 351 nM.
With `Cn1cc(S(=O)(=O)N(CCc2ccccn2)C[C@H]2CCC3=Cc4c(cnn4-c4ccc(F)cc4)C[C@@]32C)c(C(F)(F)F)n1` [Example 150, N-{[(4αR,5S)-1-(4-fluorophenyl)-4α-methyl-1,4,4α,5,6,7-hexahydrocyclopenta[f]indazol-5-yl]methyl}-1-methyl-N-(2-pyridin-2-ylethyl)-3-(trifluoromethyl)-1H-pyrazole-4-sulfonamide], the Emax was 45.6% and the EC50 is 346 nM.
The like results for `CCCS(=O)(=O)N(CCc1ccccn1)C[C@H]1CCC2=Cc3c(cnn3-c3ccc(F)cc3)C[C@@]21C` [Example 151, N-{[(4αR,5S)-1-(4-fluorophenyl)-4α-methyl-1,4,4α,5,6,7-hexahydrocyclopenta[f]indazol-5-yl]methyl}-N-(2-pyridin-2-ylethyl)propane-1-sulfonamide] were, in that order, 76% and 421 nM.
For `C[C@]12Cc3cnn(-c4ccc(F)cc4)c3C=C1CC[C@@H]2CN(CCc1ccccn1)S(=O)(=O)CCN1C(=O)c2ccccc2C1=O` [Example 152, 2-(1,3-dioxo-1,3-dihydro-2H-isoindol-2-yl)-N-{[(4αR,5S)-1-(4-fluorophenyl)-4α-methyl-1,4,4α,5,6,7-hexahydrocyclopenta[f]indazol-5-yl]methyl}-N-(2-pyridin-2-ylethyl)ethanesulfonamide], in that order: 2% and 63.9 nM.
The like results for `C[C@]12Cc3cnn(-c4ccc(F)cc4)c3C=C1CC[C@@H]2CN(CCc1ccccn1)S(=O)(=O)Cc1ccccc1C(F)(F)F` [Example 153, N-{[(4αR,5S)-1-(4-fluorophenyl)-4α-methyl-1,4,4α,5,6,7-hexahydrocyclopenta[f]indazol-5-yl]methyl}-N-(2-pyridin-2-ylethyl)-1-[2-(trifluoromethyl)phenyl]methanesulfonamide] were, in that order, 15.2% and 315 nM.
`C[C@]12Cc3cnn(-c4ccc(F)cc4)c3C=C1CC[C@@H]2CN(CC(O)C(F)F)S(=O)(=O)Cc1cccnc1` (stereo partly drawn) [Example 154, N-(3,3-difluoro-2-hydroxypropyl)-N-{[(4αR,5S)-1-(4-fluorophenyl)-4α-methyl-1,4,4α,5,6,7-hexahydrocyclopenta[f]indazol-5-yl]methyl}-1-pyridin-3-ylmethanesulfonamide]: the Emax came to 17.9% and the EC50 amounted to 509 nM.
The like results for `CCCS(=O)(=O)N(CC(O)C(F)F)C[C@H]1CCC2=Cc3c(cnn3-c3ccc(F)cc3)C[C@@]21C` (stereo partly drawn) [Example 155, N-(3,3-difluoro-2-hydroxypropyl)-N-{[(4αR,5S)-1-(4-fluorophenyl)-4α-methyl-1,4,4α,5,6,7-hexahydrocyclopenta[f]indazol-5-yl]methyl}propane-1-sulfonamide] were, in that order, 29% and 989 nM.
Consider `Cn1cc(S(=O)(=O)N(CC(O)C(F)F)C[C@H]2CCC3=Cc4c(cnn4-c4ccc(F)cc4)C[C@@]32C)c(C(F)(F)F)n1` (stereo partly drawn) [Example 156, N-(3,3-difluoro-2-hydroxypropyl)-N-{[(4αR,5S)-1-(4-fluorophenyl)-4α-methyl-1,4,4α,5,6,7-hexahydrocyclopenta[f]indazol-5-yl]methyl}-1-methyl-3-(trifluoromethyl)-1H-pyrazole-4-sulfonamide], for which the Emax stood at 4.5% and the EC50 was 193 nM.

The record behind these values is patent US8299048B2, “Hexahydrocyclopentyl[f]indazole sulfonamides and derivatives thereof as selective glucocorticoid receptor modulators” (Merck Sharp & Dohme Corp., priority 2008, dated 2012).
